Target: Thrombin (Homo sapiens, UniProt P00734)
Assay: Thrombin inhibition assay (Sigma Thrombin Inhibitor Screening Kit MAK243)
[1] = 80 μM peptide (screening grade, mixture of diastereomers), 15 min preincubation with thrombin at room temperature, AMC-based peptide substrate, 37 °C, 30 min incubation, fluorescence Ex/Em 350/450 nm, 384-well, replicate 1 of 2
[2] = 80 μM peptide (screening grade, mixture of diastereomers), 15 min preincubation, AMC substrate, 37 °C, 30 min, fluorescence, average of two independent experiments

Row | Percent thrombin inhibition, 1st run [1] [%] | Percent thrombin inhibition, Average [2] [%] | Percent thrombin inhibition, 2nd run (80 μM peptide (screening grade, mixture of diastereomers), 15 min preincubation, AMC substrate, 37 °C, 30 min, fluorescence, replicate 2 of 2) [%] | Percent thrombin inhibition, Average (80 μM, parent peptide and HPLC-separated diastereomers of 3C' (>95% purity), 30 min incubation, average of three independent experiments) [%] | Percent thrombin inhibition, 1st run (80 μM, parent peptide and HPLC-separated diastereomers of 3C' (>95% purity), 30 min incubation, replicate 1 of 3) [%] | Percent thrombin inhibition, 2nd run (80 μM, parent peptide and HPLC-separated diastereomers of 3C' (>95% purity), 30 min incubation, replicate 2 of 3) [%] | Percent thrombin inhibition, 3rd run (80 μM, parent peptide and HPLC-separated diastereomers of 3C' (>95% purity), 30 min incubation, replicate 3 of 3) [%] | Percent thrombin inhibition, Average (80 μM peptide (screening grade, mixture of diastereomers), 15 min preincubation, AMC substrate, 37 °C, 30 min, fluorescence, average of two independent experiments, listed as 3C′) [%] | Substance
1 | -2.1 | -2.5 | -2.9 |  |  |  |  |  | Ac-G-P-[5-Qin]-F-NH2 [4B']
2 |  |  |  | 7.1 | 9.4 | 5.5 | 6.5 |  | Ac-Gly-Pro-Phe-Phe-NH2 [Ac-G-P-F-F-NH2]
3 | 96.7 | 96.9 |  |  |  |  |  | 97 | Ac-Gly-Pro-[N(Me)-2-Ind]-Phe-NH2 [3C']

From paper PMC8317666, “Combining flavin photocatalysis with parallel synthesis: a general platform to optimize peptides with non-proteinogenic amino acids” (Chemical Science, 2021)
